# Experimental data from patent US20240109941A1 (University of California, published 2024).
# Like-named read-outs stand apart in the source and are kept apart here.
# B1: CghSAMPa (full length stable antimicrobial peptide) (peptide)
# chain: MCCNRGKNVSIENLHQGFTHIFESTFESTEGVAEYVSHPSHVEYANLFLANLEKVLVIDYKPTTVRV
# notes: In the native gel it ran as polymers, 'likely hexamers based on the molecular weight'; also called MaSSAMP; Syd72SSAMP1
# B2: CghSAMPa helix 2 (peptide)
# peptide: SHVEYANLFLANLEKVLVIDYK
# notes: 22-residue fragment of CghSAMPa holding only the second alpha-helix; In the native gel it ran as polymers, likely hexamers; also called MaSSAMP-helix2; SAMP-helix 2
# Assays:
# [1] = test system: defense marker genes, including PR2, PAL, and CHI; format: in vivo; conditions: 10 μM spray, Carrizo seedlings
# Liberibacter crescens = format: cell-based; conditions: Liberibacter crescens 10^6/mL; for anti-bacterial activity (viability staining, confocal microscopy): 30 μM, 2 hours
# [2] = biological target: the molecule itself; experiment: native PAGE, self-association
# B. thuringiensis = format: cell-based; conditions: compared to L. crescens; concentrations shown in FIG. 5
# E. coli = format: cell-based; conditions: compared to L. crescens; concentrations shown in FIG. 5
Molecule,"induction of defense response (PR2, PAL, CHI expression normalized to Ubiquitin) ([1]; 1 day post-treatment)",duration of defense gene induction ([1]; time course up to 7 days post treatment),"anti-bacterial activity (viability staining, confocal microscopy) (Liberibacter crescens)","anti-bacterial activity (viability staining, confocal microscopy) (Liberibacter crescens; listed as helix 2)","anti-bacterial activity compared to full length CghSAMPa (viability staining) (Liberibacter crescens; 5 hours, same concentration or triple dosages of helix 2 vs full length)",binding result [2],tolerance of B. thuringiensis to SAMP treatment (B. thuringiensis),tolerance of E. coli to SAMP treatment (E. coli)
"SHVEYANLFLANLEKVLVIDYK [CghSAMPa helix 2, polypeptide containing CghSAMPa helix 2]",induced a defense response,maintained for the 7-day time period,plays an important role in anti-bacterial activity,found to be a functional SAMP,retained much of the anti-bacterial activity of full length SAMP,–,–,–
B1,–,–,–,–,–,binds,highly tolerant,more tolerant of SAMP treatment compared to L. crescens
B2,–,–,–,–,–,binds,–,–
